Results from PubChem BioAssay AID206 (DTP/NCI, 2004).
Several values for one entry are separate records, joined by “and”; a condition that tells them apart may be missing. Equal entries are not always repeated. Records with an inconclusive call do not appear.

Tested on: nude mice, HT29 intrarenal xenograft, tumor weight T/C
Assay: NCI In Vivo Anticancer Drug Screen. Data for tumor model HT29;CX-1 Human Adenocarcinoma (MER+) (intrarenal inoculation) in NU/NU Swiss (nude) mice
Settings: endpoint: mean tumor weight change, higher = larger tumour
Method in brief: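 Readout: treated/vehicle-control ratio of the measured endpoint (tumor size or survival) in transplanted-tumor mice.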

[1] = dose: 300.0 mg/kg/injection, schedule: Q04DX004 (sc), vehicle: saline
[2] = dose: 600.0 mg/kg/injection, schedule: Q04DX004 (sc), vehicle: saline
[3] = dose: 1200.0 mg/kg/injection, schedule: Q04DX004 (sc), vehicle: saline
[4] = dose: 2400.0 mg/kg/injection, schedule: Q04DX004 (sc), vehicle: saline
[5] = dose: 1200.0 mg/kg/injection, schedule: Q04DX004 (sc), vehicle: saline with Tween-80
[6] = dose: 150.0 mg/kg/injection, schedule: Q04DX004 (sc), vehicle: Klucel (hydroxypropylcellulose) (HPC)
[7] = dose: 600.0 mg/kg/injection, schedule: Q04DX004 (sc), vehicle: Klucel (hydroxypropylcellulose) (HPC)
[8] = dose: 1200.0 mg/kg/injection, schedule: Q04DX004 (sc), vehicle: Klucel (hydroxypropylcellulose) (HPC)
[9] = dose: 400.0 mg/kg/injection, schedule: Q01DX010 (sc), vehicle: saline
[10] = dose: 800.0 mg/kg/injection, schedule: Q01DX010 (sc), vehicle: saline
[11] = dose: 300.0 mg/kg/injection, schedule: Q04DX004 (sc), vehicle: Klucel (hydroxypropylcellulose) (HPC)

Structure (SMILES): COc1cc2c(c(OC)c1OC)-c1c(cc3c(c1OC)OCO3)CC(C)C(C)(O)C2OC(=O)c1ccccc1 (stereo not drawn)
- T/C (dose: 75.0 mg/kg/injection, schedule: Q04DX004 (sc), vehicle: saline + alcohol): 63 % of control

Structure (SMILES): CCC1CCCCN1C(=S)N/N=C(\C)c1ccccn1 (stereo not drawn)
- T/C (dose: 37.5 mg/kg/injection, schedule: Q04DX004 (sc), vehicle: saline with Tween-80): 59 % of control
- T/C (dose: 75.0 mg/kg/injection, schedule: Q04DX004 (sc), vehicle: saline with Tween-80): 26 % of control

Structure (SMILES): CN(C)CCOc1ccc2c(c1)C/C(=C/c1ncc([N+](=O)[O-])n1C)C2=O
- T/C (dose: 50.0 mg/kg/injection, schedule: Q01DX010 (sc), vehicle: saline with Tween-80): 83 % of control
- T/C (dose: 100.0 mg/kg/injection, schedule: Q01DX010 (sc), vehicle: saline with Tween-80): 78 % of control
- T/C (dose: 200.0 mg/kg/injection, schedule: Q01DX010 (sc), vehicle: saline with Tween-80): 18 % of control
- T/C (dose: 400.0 mg/kg/injection, schedule: Q01DX010 (sc), vehicle: saline with Tween-80): 93 % of control

Structure (SMILES): Cc1c2cc[n+](CCN3CCCCC3)cc2c(C)c2c1[nH]c1ccc(O)cc12
- T/C (dose: 12.5 mg/kg/injection, schedule: Q04DX004 (sc), vehicle: suspension in saline): 100 % of control
- T/C (dose: 25.0 mg/kg/injection, schedule: Q04DX004 (sc), vehicle: suspension in saline): 108 % of control
- T/C (dose: 50.0 mg/kg/injection, schedule: Q04DX004 (sc), vehicle: suspension in saline): 98 % of control

Structure (SMILES): N[C@H](C(=O)O)[C@@H]1CC(Cl)=NO1
- T/C (dose: 4.0 mg/kg/injection, schedule: Q01DX010 (sc), vehicle: saline): 21 % of control
- T/C (dose: 8.0 mg/kg/injection, schedule: Q01DX010 (sc), vehicle: saline): 35 % of control

Structure (SMILES): Cn1cnc([N+](=O)[O-])c1SCC(=O)O
- T/C [1]: 89 % of control
- T/C [2]: 83 % of control
- T/C [3]: 66 % of control
- T/C [4]: 77 % of control

Structure (SMILES): N#C[C@H](OC1OC(COC2OC(CO)C(O)C(O)C2O)C(O)C(O)C1O)c1ccccc1 (stereo partly drawn)
- T/C (dose: 450.0 mg/kg/injection, schedule: Q04DX004 (sc), vehicle: suspension in saline): 101 % of control
- T/C (dose: 900.0 mg/kg/injection, schedule: Q04DX004 (sc), vehicle: suspension in saline): 67 % of control
- T/C (dose: 1800.0 mg/kg/injection, schedule: Q04DX004 (sc), vehicle: suspension in saline): 56 % of control
- T/C (dose: 3600.0 mg/kg/injection, schedule: Q04DX004 (sc), vehicle: suspension in saline): 69 % of control

Structure (SMILES): Cc1cc2nc3c(=O)[nH]c(=O)nc-3n(CC(O)C(O)C(O)C(O)CO)c2cc1C (stereo not drawn)
- T/C (dose: 600.0 mg/kg/injection, schedule: Q04DX004 (sc), vehicle: saline with Tween-80): 94 % of control
- T/C [5]: 78 % of control
- T/C (dose: 2400.0 mg/kg/injection, schedule: Q04DX004 (sc), vehicle: saline with Tween-80): 90 % of control

Structure (SMILES): CC(=O)Oc1ccccc1O
- T/C (dose: 75.0 mg/kg/injection, schedule: Q04DX004 (sc), vehicle: saline + Tween-80 + alcohol): 79 % of control
- T/C (dose: 150.0 mg/kg/injection, schedule: Q04DX004 (sc), vehicle: saline + Tween-80 + alcohol): 109 % of control
- T/C (dose: 300.0 mg/kg/injection, schedule: Q04DX004 (sc), vehicle: saline + Tween-80 + alcohol): 119 % of control

Structure (SMILES): C=CC(=O)N1CN(C(=O)C=C)CN(C(=O)C=C)C1
- T/C (dose: 6.25 mg/kg/injection, schedule: Q01DX010 (sc), vehicle: saline with Tween-80): 183 % of control
- T/C (dose: 12.5 mg/kg/injection, schedule: Q01DX010 (sc), vehicle: saline with Tween-80): 45 % of control

Structure (SMILES): OC1CCCC2CCC[N-]C12.OC1CCCC2CCC[N-]C12.[Mn+2] (stereo not drawn)
- T/C [6]: 114 % of control
- T/C [7]: 124 % of control

Structure (SMILES): CS(C)=O
- T/C (dose: 750.0 mg/kg/injection, schedule: Q01DX010 (sc), vehicle: saline): 36 % of control
- T/C (dose: 1500.0 mg/kg/injection, schedule: Q01DX010 (sc), vehicle: saline): 31 % of control
- T/C (dose: 3000.0 mg/kg/injection, schedule: Q01DX010 (sc), vehicle: saline): 89 % of control
- T/C (dose: 6000.0 mg/kg/injection, schedule: Q01DX010 (sc), vehicle: saline): 75 % of control

Structure (SMILES): CC(C)=CC(=O)OC1C2C(C)=CC(=O)C(O)C2(C)C2C3(O)OCC24C(CC(=O)OC14)C(C)C3O (stereo not drawn)
- T/C (dose: 1.25 mg/kg/injection, schedule: Q04DX004 (sc), vehicle: distilled water + Tween-80): 67 % of control and 76 % of control
- T/C (dose: 1.25 mg/kg/injection, schedule: Q04DX004 (sc), vehicle: saline with Tween-80): 70 % of control
- T/C (dose: 5.0 mg/kg/injection, schedule: Q04DX004 (sc), vehicle: saline with Tween-80): 44 % of control

Structure (SMILES): NC(Cc1ccc(N(CCCl)CCCl)cc1)C(=O)O (stereo not drawn)
- T/C (dose: 5.0 mg/kg/injection, schedule: Q04DX004 (sc), vehicle: Klucel (hydroxypropylcellulose) (HPC)): 70 % of control
- T/C (dose: 10.0 mg/kg/injection, schedule: Q04DX004 (sc), vehicle: Klucel (hydroxypropylcellulose) (HPC)): 36 % of control and 53 % of control
- T/C (dose: 20.0 mg/kg/injection, schedule: Q04DX004 (sc), vehicle: Klucel (hydroxypropylcellulose) (HPC)): -16 % of control

Structure (SMILES): Oc1c(Cl)cc(Cl)cc1C1N2CCCCC2C2c3cccn3-c3ccccc3N21 (stereo not drawn)
- T/C [8]: 111 % of control

Structure (SMILES): Cc1cc2nc3[nH]c4ccccc4c3nc2cc1C
- T/C (dose: 100.0 mg/kg/injection, schedule: Q01DX010 (sc), vehicle: saline): 46 % of control
- T/C (dose: 200.0 mg/kg/injection, schedule: Q01DX010 (sc), vehicle: saline): 98 % of control
- T/C [9]: 82 % of control
- T/C [10]: 84 % of control

Structure (SMILES): CC(CN1CC(=O)NC(=O)C1)N1CC(=O)NC(=O)C1 (stereo not drawn)
- T/C [6]: 85 % of control
- T/C [11]: 40 % of control
- T/C [7]: 46 % of control

Structure (SMILES): CCCCCC(=O)O[C@]1(C(C)=O)CC[C@H]2[C@@H]3CCC4=CC(=O)CC[C@]4(C)[C@H]3CC[C@@]21C
- T/C (dose: 225.0 mg/kg/injection, schedule: Q04DX004 (sc), vehicle: Klucel (hydroxypropylcellulose) (HPC)): 73 % of control
- T/C (dose: 450.0 mg/kg/injection, schedule: Q04DX004 (sc), vehicle: Klucel (hydroxypropylcellulose) (HPC)): 46 % of control
- T/C (dose: 900.0 mg/kg/injection, schedule: Q04DX004 (sc), vehicle: Klucel (hydroxypropylcellulose) (HPC)): 58 % of control
- T/C (dose: 1800.0 mg/kg/injection, schedule: Q04DX004 (sc), vehicle: Klucel (hydroxypropylcellulose) (HPC)): 36 % of control

Structure (SMILES): O=c1ncccn1[C@@H]1O[C@H](CO)[C@H](O)C1O (stereo partly drawn)
- T/C [1]: 110 % of control
- T/C [2]: 87 % of control
- T/C [3]: 51 % of control
- T/C [4]: 55 % of control

Structure (SMILES): COc1ccc2ccccc2c1C1NC(=O)c2ccccc2N1 (stereo not drawn)
- T/C [6]: 114 % of control
- T/C [11]: 115 % of control
- T/C [7]: 207 % of control
- T/C [8]: 201 % of control

Structure (SMILES): NNC(=S)N/N=C/c1ccccn1
- T/C (dose: 15.0 mg/kg/injection, schedule: Q04DX004 (sc), vehicle: saline with Tween-80): 100 % of control
- T/C (dose: 30.0 mg/kg/injection, schedule: Q04DX004 (sc), vehicle: saline with Tween-80): 76 % of control
- T/C (dose: 60.0 mg/kg/injection, schedule: Q04DX004 (sc), vehicle: saline with Tween-80): 86 % of control

Structure (SMILES): N#C[Se-].c1ccc([Te+](c2ccccc2)c2ccccc2)cc1
- T/C (dose: 12.5 mg/kg/injection, schedule: Q04DX004 (sc), vehicle: Klucel (hydroxypropylcellulose) (HPC)): 64 % of control
- T/C (dose: 25.0 mg/kg/injection, schedule: Q04DX004 (sc), vehicle: Klucel (hydroxypropylcellulose) (HPC)): 44 % of control

Structure (SMILES): CSc1ncc2ncn(C3OC(CO)C(O)C3O)c2n1 (stereo not drawn)
- T/C (dose: 75.0 mg/kg/injection, schedule: Q04DX004 (sc), vehicle: Klucel (hydroxypropylcellulose) (HPC)): 95 % of control
- T/C [6]: 90 % of control
- T/C [11]: 185 % of control
- T/C [7]: 182 % of control

Structure (SMILES): Cc1cc(NCCCN(C)C)c2ccc3c(ccc4c(NCCCN(C)C)cc(C)nc43)c2n1
- T/C (dose: 9.38 mg/kg/injection, schedule: Q04DX004 (sc), vehicle: saline with Tween-80): 53 % of control

Structure (SMILES): CN1c2c(nc(N)[nH]c2=O)NCC1CCNc1ccc(C(=O)NC(CCC(=O)O)C(=O)O)cc1 (stereo not drawn)
- T/C [9]: 33 % of control
- T/C [10]: 51 % of control

Structure (SMILES): BrC1c2cccc3cccc(c23)C1Br (stereo not drawn)
- T/C (dose: 150.0 mg/kg/injection, schedule: Q04DX004 (sc), vehicle: saline with Tween-80): 186 % of control
- T/C [5]: 36 % of control and 39 % of control

Structure (SMILES): C[C@]12CC[C@@H]3c4ccc(OC(=O)Cc5ccc(N(CCCl)CCCl)cc5)cc4CC[C@H]3[C@@H]1CC[C@@H]2OC(=O)Cc1ccc(N(CCCl)CCCl)cc1
- T/C (dose: 200.0 mg/kg/injection, schedule: Q04DX004 (sc), vehicle: saline with Tween-80): 106 % of control
- T/C (dose: 400.0 mg/kg/injection, schedule: Q04DX004 (sc), vehicle: saline with Tween-80): 70 % of control
- T/C (dose: 800.0 mg/kg/injection, schedule: Q04DX004 (sc), vehicle: saline with Tween-80): 113 % of control
- T/C (dose: 1600.0 mg/kg/injection, schedule: Q04DX004 (sc), vehicle: saline with Tween-80): 111 % of control
